In ChEMBL document CHEMBL5608174, “Synthesis and biological evaluation of 4-phenyl-5-quinolinyl substituted isoxazole analogues as potent cytotoxic and tubulin polymerization inhibitors against ESCC” (Eur J Med Chem, 2024):
Activity calls are given as the source filed them. The calls are words filed in the database; no cut-off is given here.

Legend:
[1] = Cytotoxicity against HUVEC cells assessed as inhibition of cell growth incubated for 48 hrs by MTT assay; type: toxicity, cell-based; settings: human
[2] = test system: MGC-803; experiment: Antiproliferative activity against human MGC-803 cells assessed as inhibition of cell proliferation incubated for 48 hrs by MTT assay; type: functional, cell-based; settings: MGC-803, 48 h
[3] = test system: Esophageal squamous cell carcinoma cell; experiment: Induction of apoptosis in human Esophageal squamous cell carcinoma cell assessed as […] of Bax level at 5 to 20 nmol/L incubated for 48 hrs by Western blot analysis; type: functional, cell-based; settings: dose 5-20 nmol/L
[4] = test system: KYSE-30; experiment: cells; settings: Homo sapiens, KYSE-30, 48 h
Description: Antiproliferative activity against human KYSE-30 cells assessed as inhibition of cell proliferation incubated for 48 hrs by MTT assay

[5] = molecular target: T1, Tubulin (Homo sapiens) (UniProt P68371+Q9H4B7+P0DPH7+P68366+Q13509+Q71U36+P04350+Q3ZCM7+P07437+P68363+Q9BQE3+Q6PEY2+Q13885+Q9BVA1+Q9BUF5); experiment: Inhibition of tubulin polymerization in human KYSE-70 cells assessed as multinucleation of cells at 5 to 20 nmol/L incubated for 24 hrs by DAPI staining based fluorescence microscopic analysis; type: cell-based; settings: dose 5-20 nmol/L
[6] = molecular target: T1, Tubulin (Homo sapiens); experiment: Inhibition of tubulin polymerization in human KYSE-30 cells assessed as multinucleation of cells at 5 to 20 nmol/L incubated for 24 hrs by DAPI staining based fluorescence microscopic analysis; type: cell-based; settings: dose 5-20 nmol/L
[7] = test system: KYSE-30; experiment: Induction of cell cycle arrest in human KYSE-30 cells assessed as accumulation of cells at G2/M phase at 10 nmol/L by PI staining based flow cytometric analysis; type: functional
[8] = test system: KYSE-30; experiment: Induction of apoptosis in human KYSE-30 cells assessed as viable cells at 5 nmol/L incubated for 48 hrs by Annexin V-FITC/PI staining based flow cytometry analysis (reference value: 88.76 %); type: functional; settings: read-out: Activity
[9] = test system: KYSE-30; experiment: Antitumor activity against human KYSE-30 cells xenografted in female BALB/c-nu nude mouse assessed as reduction in tumor volume at 6 to 12 mg/kg, ip administered daily for 15 days; type: functional, organism-based; settings: dose 6-12 mg/kg, time 15.0 day
[10] = Toxicity in female BALB/c-nu nude mouse xenografted with human KYSE-30 cells assessed as effect on serum creatinine level at 6 to 12 mg/kg, ip administered for 15 days by biochemical analysis; type: organism-based; settings: in vivo, 360 h, dose 6-12 mg/kg, time 15 day
[11] = test system: KYSE-30; experiment: Induction of apoptosis in human KYSE-30 cells assessed as necrotic cells at 5 nmol/L incubated for 48 hrs by Annexin V-FITC/PI staining based flow cytometry analysis (reference value: 1.59 %); type: functional
[12] = test system: KYSE-70 cell line; experiment: Induction of apoptosis in human KYSE-70 cells assessed as early apoptotic cells at 5 nmol/L incubated for 48 hrs by Annexin V-FITC/PI staining based flow cytometry analysis (reference value: 1.78%); type: functional
[13] = test system: KYSE-30; experiment: Induction of apoptosis in human KYSE-30 cells assessed as necrotic cells at 10 nmol/L incubated for 48 hrs by Annexin V-FITC/PI staining based flow cytometry analysis (reference value: 1.59 %); type: functional
[14] = Toxicity in female BALB/c-nu nude mouse xenografted with human KYSE-30 cells assessed as effect on serum AST level at 6 to 12 mg/kg, ip administered for 15 days by biochemical analysis; type: organism-based; settings: in vivo, 360 h, dose 6-12 mg/kg, time 15 day
[15] = Toxicity in female BALB/c-nu nude mouse xenografted with human KYSE-30 cells assessed as effect on serum total bilirubin level at 6 to 12 mg/kg, ip administered for 15 days by biochemical analysis; type: organism-based; settings: in vivo, 360 h, dose 6-12 mg/kg, time 15 day
[16] = test system: Esophageal squamous cell carcinoma cell; experiment: Induction of apoptosis in human Esophageal squamous cell carcinoma cell assessed as increase in caspase-3 activation at 5 to 20 nmol/L incubated for 48 hrs by Western blot analysis; type: functional, cell-based; settings: dose 5-20 nmol/L
[17] = Toxicity in female BALB/c-nu nude mouse xenografted with human KYSE-30 cells assessed as effect on serum ALT level at 6 to 12 mg/kg, ip administered for 15 days by biochemical analysis; type: organism-based; settings: in vivo, 360 h, dose 6-12 mg/kg, time 15 day
[18] = test system: KYSE-70 cell line; experiment: Induction of apoptosis in human KYSE-70 cells assessed as late apoptotic cells at 10 nmol/L incubated for 48 hrs by Annexin V-FITC/PI staining based flow cytometry analysis (reference value: 3.01%); type: functional
[19] = test system: KYSE-70 cell line; experiment: Induction of apoptosis in human KYSE-70 cells assessed as early apoptotic cells at 20 nmol/L incubated for 48 hrs by Annexin V-FITC/PI staining based flow cytometry analysis (reference value: 1.78%); type: functional
[20] = test system: KYSE-30; experiment: Induction of apoptosis in human KYSE-30 cells assessed as early apoptotic cells at 20 nmol/L incubated for 48 hrs by Annexin V-FITC/PI staining based flow cytometry analysis (reference value: 4.38 %); type: functional
[21] = test system: KYSE-30; experiment: Induction of apoptosis in human KYSE-30 cells assessed as late apoptotic cells at 20 nmol/L incubated for 48 hrs by Annexin V-FITC/PI staining based flow cytometry analysis (reference value: 5.27 %); type: functional
[22] = test system: KYSE-70 cell line; experiment: Inhibition of cell migration in human KYSE-70 cells at 2 to 6 nmol/L incubated upto 48 hrs by wound healing assay; type: functional, cell-based; settings: dose 2-6 nmol/L
[23] = test system: KYSE-70 cell line; experiment: Induction of cell cycle arrest in human KYSE-70 cells assessed as accumulation of cells at G2/M phase at 10 nmol/L by PI staining based flow cytometric analysis; type: functional
[24] = test system: Esophageal squamous cell carcinoma cell; experiment: Induction of apoptosis in human Esophageal squamous cell carcinoma cell assessed as increase in cleaved-PARP level at 5 to 20 nmol/L incubated for 48 hrs by Western blot analysis; type: functional, cell-based; settings: dose 5-20 nmol/L
[25] = test system: KYSE-30; experiment: Induction of apoptosis in human KYSE-30 cells assessed as early apoptotic cells at 5 nmol/L incubated for 48 hrs by Annexin V-FITC/PI staining based flow cytometry analysis (reference value: 4.38 %); type: functional
[26] = test system: Esophageal squamous cell carcinoma cell; experiment: Induction of apoptosis in human Esophageal squamous cell carcinoma cell assessed as increase in caspase-7 activation at 5 to 20 nmol/L incubated for 48 hrs by Western blot analysis; type: functional, cell-based; settings: dose 5-20 nmol/L
[27] = test system: HCT-116; experiment: cells; settings: Homo sapiens, HCT-116, 48 h
Description: Antiproliferative activity against human HCT-116 cells assessed as inhibition of cell proliferation incubated for 48 hrs by MTT assay

[28] = test system: Esophageal squamous cell carcinoma cell; experiment: Antiproliferative activity against human Esophageal squamous cell carcinoma cells assessed as reduction in EdU-positive cells at 5 to 20 nmol/L incubated for 48 hrs by EdU staining based inverted fluorescence microscopic analysis; type: functional; settings: dose 5-20 nmol/L
[29] = molecular target: T1, Tubulin (Homo sapiens); experiment: Inhibition of tubulin polymerization in human KYSE-30 cells assessed as effect on mitotic phase at 5 to 20 nmol/L incubated for 24 hrs by DAPI staining based fluorescence microscopic analysis; type: cell-based; settings: dose 5-20 nmol/L
[30] = Toxicity in female BALB/c-nu nude mouse xenografted with human KYSE-30 cells assessed as effect on serum uric acid level at 6 to 12 mg/kg, ip administered for 15 days by biochemical analysis; type: organism-based; settings: in vivo, 360 h, dose 6-12 mg/kg, time 15 day
[31] = test system: KYSE-30; experiment: Effect on nuclear replication in human KYSE-30 cells at 5 to 20 nmol/L incubated for 24 hrs by DAPI staining based fluorescence microscopic analysis; type: functional, cell-based; settings: dose 5-20 nmol/L
[32] = test system: KYSE-30; experiment: Induction of apoptosis in human KYSE-30 cells assessed as late apoptotic cells at 5 nmol/L incubated for 48 hrs by Annexin V-FITC/PI staining based flow cytometry analysis (reference value: 5.27 %); type: functional
[33] = test system: KYSE-30; experiment: Inhibition of cell migration in human KYSE-30 cells at 2 to 6 nmol/L incubated upto 48 hrs by wound healing assay; type: functional, cell-based; settings: dose 2-6 nmol/L

Compound: COc1ccc(-c2cnoc2-c2cc(C)nc3ccccc23)cc1
- IC50 at 48 h [1]: > 710 nM
- IC50 [2]: 14 nM
- Activity [3]: Active
- IC50 [4]: 13 nM
- inhibition [5]: Active
- inhibition [6]: Active
- Activity [7]: Active
- viability at 0.005 µM [8]: 38.8%
- Activity [9]: Active
- Activity [10]: Non-Toxic
- Activity [11]: 2.61%
- Activity [12]: 8.24%
- Activity [13]: 2.86%
- Activity [14]: Non-Toxic
- Activity [15]: Non-Toxic
- Activity [16]: Active
- Activity [17]: Non-Toxic
- Activity [18]: 14.3%
- Activity [19]: 30.31%
- Activity [20]: 47.76%
- Activity [21]: 10.13%
- inhibition [22]: Active
- Activity [23]: Active
- Activity [24]: Active
- Activity [25]: 46.64%
- Activity [26]: Active
- IC50 [27]: 26 nM
- Activity [28]: Active
- inhibition [29]: Active
- Activity [30]: Non-Toxic
- Activity [31]: inactive
- Activity [32]: 11.99%
- inhibition [33]: Active
